# Laboratory results: ChEMBL document CHEMBL1201862, “PubChem BioAssay data set” (2004)
# The source made the active and inactive calls.
# How the values were obtained:
# [1] = biological target: CAAX prenyl protease 2 (Homo sapiens, UniProt Q9Y256); experiment: human Rce1 protease inhibitors, dose response, biochemical, yeast membranes, quenched-peptide fluorescence, cherry-pick (AID 588849)
# [2] = biological target: Trypsin (Sus scrofa, UniProt P00761); experiment: porcine trypsin inhibitors, dose response, selectivity assay for Rce1 protease inhibitor project, biochemical, quenched peptide fluorescence, cherry-pick (AID 488789)
# Sequence of Trypsin (P00761 whole entry): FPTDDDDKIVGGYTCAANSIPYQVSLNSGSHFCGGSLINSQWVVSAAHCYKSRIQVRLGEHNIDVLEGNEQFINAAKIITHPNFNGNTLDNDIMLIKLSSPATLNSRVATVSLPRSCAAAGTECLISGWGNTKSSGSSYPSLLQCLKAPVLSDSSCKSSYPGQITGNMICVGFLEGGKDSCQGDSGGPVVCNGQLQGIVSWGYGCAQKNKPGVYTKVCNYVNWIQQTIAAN
# [3] = biological target: Keap1/Nrf2 (Homo sapiens, UniProt Q14145); experiment: Keap1-Nrf2 protein-protein interaction inhibitors, dose response, biochemical, fluorescence polarization, cherry-picked samples (AID 588683)
# Sequence of Keap1/Nrf2 (Q16236 whole entry): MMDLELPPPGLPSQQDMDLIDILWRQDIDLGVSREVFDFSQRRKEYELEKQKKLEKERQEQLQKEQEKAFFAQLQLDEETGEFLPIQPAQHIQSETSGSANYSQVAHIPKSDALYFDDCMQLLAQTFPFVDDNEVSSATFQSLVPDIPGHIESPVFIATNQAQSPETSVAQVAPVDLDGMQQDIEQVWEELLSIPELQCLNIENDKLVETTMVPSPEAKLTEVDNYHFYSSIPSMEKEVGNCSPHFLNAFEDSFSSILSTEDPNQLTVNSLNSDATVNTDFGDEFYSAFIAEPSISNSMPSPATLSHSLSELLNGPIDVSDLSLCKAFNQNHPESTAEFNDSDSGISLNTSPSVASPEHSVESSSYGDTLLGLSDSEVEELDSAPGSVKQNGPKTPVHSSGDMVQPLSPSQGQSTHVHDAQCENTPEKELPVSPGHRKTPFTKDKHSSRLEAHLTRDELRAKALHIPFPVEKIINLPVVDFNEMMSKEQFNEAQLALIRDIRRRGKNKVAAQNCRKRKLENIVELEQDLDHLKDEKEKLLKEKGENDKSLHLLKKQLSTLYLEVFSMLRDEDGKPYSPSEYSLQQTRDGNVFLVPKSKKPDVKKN
# Sequence of Keap1/Nrf2 (Q14145 whole entry): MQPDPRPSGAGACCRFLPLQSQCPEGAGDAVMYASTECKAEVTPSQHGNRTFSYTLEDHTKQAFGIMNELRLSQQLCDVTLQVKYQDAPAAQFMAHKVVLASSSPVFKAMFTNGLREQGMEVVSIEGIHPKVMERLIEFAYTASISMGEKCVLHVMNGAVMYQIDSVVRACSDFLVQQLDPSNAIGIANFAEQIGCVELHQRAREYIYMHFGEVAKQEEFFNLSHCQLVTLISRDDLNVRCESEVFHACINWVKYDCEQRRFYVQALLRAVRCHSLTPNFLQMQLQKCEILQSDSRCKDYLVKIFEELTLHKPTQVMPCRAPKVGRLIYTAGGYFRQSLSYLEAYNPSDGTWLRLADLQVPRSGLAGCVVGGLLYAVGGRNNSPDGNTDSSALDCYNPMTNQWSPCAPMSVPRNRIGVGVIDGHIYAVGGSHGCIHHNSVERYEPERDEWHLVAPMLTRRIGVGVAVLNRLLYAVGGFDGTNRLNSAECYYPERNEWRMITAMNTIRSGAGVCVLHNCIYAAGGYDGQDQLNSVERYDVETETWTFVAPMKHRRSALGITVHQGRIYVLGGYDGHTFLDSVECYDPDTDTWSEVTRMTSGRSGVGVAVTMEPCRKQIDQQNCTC
# [4] = tested on: HEK293; experiment: SAR Analysis of small molecule inhibitors of T-cell specific antigen receptor-induced NF-kB activation in a HEK-293T cell line using a luminescence assay - Set 2. [Related pubchem assays (depositor defined):AID435003, AID435012, AID489026]; format: functional, cell-based; conditions: Homo sapiens
# [5] = tested on: Jurkat; experiment: SAR Analysis of small molecule inhibitors of T-cell specific antigen receptor-induced NF-kB activation in a Jurkat cell line using a luminescence assay - Set 2. [Related pubchem assays (depositor defined):AID435003, AID435012, AID465]; format: functional, cell-based; conditions: Homo sapiens
# [6] = tested on: HEK293; experiment: cytotoxicity in HEK293T NF-kB-Luc cells, SAR follow-up, cytotoxicity control for NF-kB activator project, cell-based, resazurin fluorescence (AID 493251); format: functional; conditions: Homo sapiens, HEK293
# [7] = biological target: T1, Microphthalmia-associated transcription factor (Homo sapiens, UniProt O75030); experiment: TRPM1 promoter luciferase signal decrease, dose response, MITF inhibitor project, cell-based, SK-MEL-5, cherry-picked, set 3 (AID 493073); format: functional
# T1 sequence (O75030 whole entry): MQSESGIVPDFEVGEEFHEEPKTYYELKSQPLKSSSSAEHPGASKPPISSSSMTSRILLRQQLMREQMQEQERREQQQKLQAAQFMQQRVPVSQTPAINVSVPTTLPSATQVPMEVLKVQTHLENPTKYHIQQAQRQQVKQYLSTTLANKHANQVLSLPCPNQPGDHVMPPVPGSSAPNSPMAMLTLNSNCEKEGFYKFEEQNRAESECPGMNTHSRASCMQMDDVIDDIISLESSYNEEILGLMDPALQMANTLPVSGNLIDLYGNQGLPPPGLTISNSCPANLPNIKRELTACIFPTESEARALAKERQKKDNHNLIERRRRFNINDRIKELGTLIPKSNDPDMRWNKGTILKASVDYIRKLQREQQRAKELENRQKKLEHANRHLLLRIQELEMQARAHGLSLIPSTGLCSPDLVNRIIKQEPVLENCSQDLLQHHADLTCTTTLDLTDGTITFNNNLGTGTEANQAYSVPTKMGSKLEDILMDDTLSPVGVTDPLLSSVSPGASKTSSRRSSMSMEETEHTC
# [8] = biological target: T2, Streptokinase A (Streptococcus pyogenes serotype M1, UniProt P10520); experiment: S. pyogenes streptokinase expression inhibitors, potency, dose response, plasminogen activation absorbance, OD405 (AID 1914); format: functional, Streptococcus pyogenes M1 GAS;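 also: secreted streptokinase activity via plasminogen activation per viability signal from cell pellet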
# T2 sequence (P10520 whole entry): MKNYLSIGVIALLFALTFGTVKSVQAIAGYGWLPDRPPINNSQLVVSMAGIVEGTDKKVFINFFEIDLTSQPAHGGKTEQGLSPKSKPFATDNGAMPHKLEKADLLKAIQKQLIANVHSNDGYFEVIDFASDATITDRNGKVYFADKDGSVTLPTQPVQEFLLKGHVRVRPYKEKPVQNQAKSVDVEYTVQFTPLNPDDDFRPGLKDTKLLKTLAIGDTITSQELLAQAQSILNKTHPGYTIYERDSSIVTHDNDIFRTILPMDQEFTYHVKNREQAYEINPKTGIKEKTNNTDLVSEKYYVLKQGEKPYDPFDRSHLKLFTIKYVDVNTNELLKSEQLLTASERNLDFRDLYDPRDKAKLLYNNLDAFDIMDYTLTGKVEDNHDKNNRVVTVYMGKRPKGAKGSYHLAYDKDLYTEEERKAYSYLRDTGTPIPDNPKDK
# [9] = tested on: Streptococcus sp. 'group A'; experiment: growth inhibition of control SK(-) GAS strain, dose response, counter-screen for streptokinase expression inhibitor project, luminescence, kanamycin, BacTiterGlo, confirmation (AID 1900); format: functional, organism-based
# [10] = HepG2 cell cytotoxicity, dose response, cytotoxicity control for Shn3 inhibitor project, CellTiter-Glo, cherry-picked (AID 624134); format: functional, cell-based
# [11] = tested on: CHO; experiment: cytotoxicity in TLR9-MyD88 CHO cells, dose response, cytotoxicity control for TLR9-MyD88 binding inhibitor project, cell-based, luminescence (AID 588339); format: functional, hamster; conditions: Cricetulus griseus;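 also: CHO cells stably coexpressing TLR9 and MyD88 fusions from primary screen; compound exposure lasted 48 hours before viability readout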
# [12] = inhibitors of firefly luciferase expression or activity, dose response, H4 neuroglioma cells, luminescence (AID 1990); format: functional, cell-based
# [13] = tested on: Streptococcus; experiment: Group A Streptococcus viability loss, dose response, counter-screen for streptokinase expression inhibitor project, luminescence, BacTiterGlo (AID 1915); format: functional, organism-based;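 also: potency for reduction of bacterial viability or growth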
# [14] = Luminescence Cell-Based Dose Response HTS to Identify Inhibitors of 5'UTR Stem-Loop Driven Prion Protein mRNA Translation in H4 Neuroglioblastoma Cells. [Related pubchem assays: 1827 (Project Summary), 1813 (Primary HTS)]; format: functional
# [15] = tested on: A-375; experiment: A375 melanoma cell viability reduction, dose response, counter-screen for MITF modulator project, cherry-pick samples, set 2 (AID 540335); format: functional, cell-based; conditions: Homo sapiens
# [16] = inhibitors of SNCA 5'UTR-driven reporter translation, confirmation, H4 neuroglioma cells, luminescence (AID 1988); format: functional, cell-based
# [17] = tested on: INS1; experiment: beta cell apoptosis inhibitors, cytokine rescue, dose response, luminescence, retest (AID 449756); format: functional, cell-based; conditions: Rattus norvegicus;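 also: cell death triggered by IL-1 beta plus TNF-alpha plus IFN-gamma mixture; protective hits raise ATP signal compared with cytokine alone wells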
# [18] = biological target: Beta Lactamase (Pseudomonas aeruginosa, UniProt Q932Y6); experiment: beta-lactamase reporter inhibitor potency, dose response, artefact control for TLR9-MyD88 binding inhibitor project, BLA reporter cells, FRET fluorescence (AID 588341); format: cell-based;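 also: cell based assay in CHO-K1 cells stably expressing beta-lactamase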
# Sequence of Beta Lactamase (Q932Y6 whole entry): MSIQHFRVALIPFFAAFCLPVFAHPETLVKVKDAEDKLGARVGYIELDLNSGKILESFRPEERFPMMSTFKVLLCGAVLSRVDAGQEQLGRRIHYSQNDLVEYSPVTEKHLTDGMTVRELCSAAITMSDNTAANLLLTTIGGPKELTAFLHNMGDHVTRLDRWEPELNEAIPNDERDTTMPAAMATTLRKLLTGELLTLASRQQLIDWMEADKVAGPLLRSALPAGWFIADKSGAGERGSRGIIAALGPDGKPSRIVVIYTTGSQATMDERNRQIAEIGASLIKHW
# [19] = Shn3 3'UTR reporter inhibitors, dose response, cell-based, Clone20 osteoblasts, firefly luciferase, cherry-picked (AID 624132); format: functional;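 also: firefly luciferase luminescence from reporter carrying the Shn3 3'UTR in osteoblasts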
# [20] = control 3'UTR Renilla luciferase suppression, dose response, counter-screen for Shn3 inhibitor project, cell-based, Clone20-Shn3RL, cherry-picked (AID 624133); format: functional
# [21] = biological target: Glucose-6-phosphate 1-dehydrogenase (Homo sapiens, UniProt P11413); experiment: human G6PD enzyme inhibitors, dose response, selectivity assay for P. falciparum G6PD inhibitor project, biochemical, fluorescence (AID 504792); format: functional
# Sequence of Glucose-6-phosphate 1-dehydrogenase (P11413 whole entry): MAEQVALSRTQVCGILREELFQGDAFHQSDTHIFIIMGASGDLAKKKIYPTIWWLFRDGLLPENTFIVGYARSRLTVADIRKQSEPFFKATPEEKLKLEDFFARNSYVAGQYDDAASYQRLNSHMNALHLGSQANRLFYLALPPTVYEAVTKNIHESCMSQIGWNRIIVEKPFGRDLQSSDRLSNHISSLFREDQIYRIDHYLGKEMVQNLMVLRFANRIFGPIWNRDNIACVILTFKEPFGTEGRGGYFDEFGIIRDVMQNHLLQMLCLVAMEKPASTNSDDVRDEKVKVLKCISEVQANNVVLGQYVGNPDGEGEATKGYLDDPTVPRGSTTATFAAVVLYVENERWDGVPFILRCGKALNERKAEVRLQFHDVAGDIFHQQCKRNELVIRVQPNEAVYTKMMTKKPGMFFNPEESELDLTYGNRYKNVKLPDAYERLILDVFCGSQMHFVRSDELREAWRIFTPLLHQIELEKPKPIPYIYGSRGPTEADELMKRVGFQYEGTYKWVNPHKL
# [22] = biological target: Heat shock protein HSP 90-alpha (Homo sapiens, UniProt P07900); format: functional, organism-based
# [23] = biological target: Cytochrome P450 3A4 (Homo sapiens, UniProt P08684);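 also: CYP3A4 tested as one member of a cytochrome P450 panel screen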
# [24] = biological target: T3, Cytochrome P450 1A2 (Homo sapiens, UniProt P05177);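 also: PubChem cytochrome P450 panel assay, CYP1A2 panel member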
# T3 sequence (P05177 whole entry): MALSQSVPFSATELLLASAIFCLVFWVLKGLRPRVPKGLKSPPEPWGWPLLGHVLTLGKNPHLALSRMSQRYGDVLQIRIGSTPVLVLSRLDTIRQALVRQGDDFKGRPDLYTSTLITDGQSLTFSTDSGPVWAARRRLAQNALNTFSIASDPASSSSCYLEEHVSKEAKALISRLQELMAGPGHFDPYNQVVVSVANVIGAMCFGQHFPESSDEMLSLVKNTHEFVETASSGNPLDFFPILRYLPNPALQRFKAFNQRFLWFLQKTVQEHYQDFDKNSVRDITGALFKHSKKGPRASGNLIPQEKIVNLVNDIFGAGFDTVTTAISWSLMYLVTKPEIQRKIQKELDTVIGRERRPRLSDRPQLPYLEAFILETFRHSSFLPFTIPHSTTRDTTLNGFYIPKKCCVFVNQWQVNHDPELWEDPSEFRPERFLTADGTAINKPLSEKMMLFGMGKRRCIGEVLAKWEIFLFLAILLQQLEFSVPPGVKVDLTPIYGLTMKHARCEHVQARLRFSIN
# [25] = biological target: Cytochrome P450 2C9 (Homo sapiens, UniProt P11712)
# Sequence of Cytochrome P450 2C9 (P11712 whole entry): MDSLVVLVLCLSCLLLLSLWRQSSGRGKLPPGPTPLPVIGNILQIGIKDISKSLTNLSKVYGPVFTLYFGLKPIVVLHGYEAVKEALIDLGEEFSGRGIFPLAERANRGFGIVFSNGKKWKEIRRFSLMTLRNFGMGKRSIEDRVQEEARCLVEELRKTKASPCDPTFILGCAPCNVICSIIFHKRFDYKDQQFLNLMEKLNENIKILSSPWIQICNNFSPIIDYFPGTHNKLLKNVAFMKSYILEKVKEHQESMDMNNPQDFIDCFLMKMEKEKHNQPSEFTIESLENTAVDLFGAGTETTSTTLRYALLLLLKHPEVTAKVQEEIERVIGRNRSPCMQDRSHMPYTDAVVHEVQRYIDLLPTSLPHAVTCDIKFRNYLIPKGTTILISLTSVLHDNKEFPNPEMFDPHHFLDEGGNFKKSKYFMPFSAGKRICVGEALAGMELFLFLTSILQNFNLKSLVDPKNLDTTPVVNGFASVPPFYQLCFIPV
# [26] = biological target: Cytochrome P450 2C19 (Homo sapiens, UniProt P33261); experiment: Cytochrome panel assay with activity outcomes. Panel member name: p450-cyp2c19 Compounds with AC50 equal or less than 10 uM are considered active; format: functional
# [27] = biological target: Voltage-gated inwardly rectifying potassium channel KCNH2 (Homo sapiens, UniProt Q12809); conditions: Potency;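 also: confirmatory quantitative high-throughput screen measuring inhibition of hERG channel activity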
# [28] = biological target: 72 kDa type IV collagenase (Homo sapiens, UniProt P08253); experiment: Dose Response validation of uHTS RPN11 inhibitor hits using a MMP-2 Fluorescence assay.; format: functional
# Sequence of 72 kDa type IV collagenase (P08253 whole entry): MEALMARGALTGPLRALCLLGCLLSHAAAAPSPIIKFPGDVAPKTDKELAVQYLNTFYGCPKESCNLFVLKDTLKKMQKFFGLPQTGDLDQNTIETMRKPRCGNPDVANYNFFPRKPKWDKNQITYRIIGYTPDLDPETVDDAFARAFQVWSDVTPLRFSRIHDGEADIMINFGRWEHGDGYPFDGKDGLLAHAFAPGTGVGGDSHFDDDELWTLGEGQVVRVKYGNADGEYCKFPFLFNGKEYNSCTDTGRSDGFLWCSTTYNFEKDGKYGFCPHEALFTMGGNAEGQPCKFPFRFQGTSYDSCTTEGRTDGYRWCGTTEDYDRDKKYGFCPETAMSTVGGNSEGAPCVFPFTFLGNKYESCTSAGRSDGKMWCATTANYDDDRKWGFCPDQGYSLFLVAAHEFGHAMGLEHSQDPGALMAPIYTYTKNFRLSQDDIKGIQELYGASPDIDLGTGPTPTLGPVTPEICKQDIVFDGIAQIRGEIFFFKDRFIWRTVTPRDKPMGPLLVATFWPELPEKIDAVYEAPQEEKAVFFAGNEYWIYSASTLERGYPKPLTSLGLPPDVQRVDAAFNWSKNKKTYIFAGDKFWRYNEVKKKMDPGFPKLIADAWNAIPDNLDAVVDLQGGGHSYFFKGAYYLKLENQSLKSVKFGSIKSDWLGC
# [29] = biological target: Prothrombin (Bos taurus, UniProt P00735); experiment: thrombin inhibition, dose response, biochemical, fluorescence polarization, uHTS hits (AID 602369); format: functional
# [30] = biological target: Steroidogenic factor 1 (Homo sapiens, UniProt Q13285); experiment: Counterscreen for inverse agonists of the liver receptor homolog-1 (LRH-1; NR5A2): Luminescence-based cell-based high throughput dose response assay to identify inverse agonists of the Steroidogenic Factor 1 Nuclear Receptor (SF1; NR5A1).; format: functional
# Sequence of Steroidogenic factor 1 (Q13285 whole entry): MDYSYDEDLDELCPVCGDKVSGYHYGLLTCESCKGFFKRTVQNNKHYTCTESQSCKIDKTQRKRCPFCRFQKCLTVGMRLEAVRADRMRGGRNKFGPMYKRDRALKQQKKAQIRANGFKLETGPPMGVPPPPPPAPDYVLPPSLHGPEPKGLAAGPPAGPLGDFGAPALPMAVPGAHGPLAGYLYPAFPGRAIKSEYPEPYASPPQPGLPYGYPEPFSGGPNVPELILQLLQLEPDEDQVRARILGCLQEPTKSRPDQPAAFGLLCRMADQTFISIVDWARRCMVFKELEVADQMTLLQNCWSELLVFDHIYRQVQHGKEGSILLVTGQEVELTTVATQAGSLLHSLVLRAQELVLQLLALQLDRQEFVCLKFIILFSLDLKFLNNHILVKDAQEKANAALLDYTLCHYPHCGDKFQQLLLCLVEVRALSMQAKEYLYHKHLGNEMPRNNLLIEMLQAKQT
# [31] = biological target: T4, Zinc finger protein mex-5 (Caenorhabditis elegans, UniProt Q9XUB2); experiment: MEX-5/TCR-2 RNA interaction inhibitors, dose response, biochemical, C. elegans, fluorescence polarization (AID 1960)
# T4 sequence (Q9XUB2 whole entry): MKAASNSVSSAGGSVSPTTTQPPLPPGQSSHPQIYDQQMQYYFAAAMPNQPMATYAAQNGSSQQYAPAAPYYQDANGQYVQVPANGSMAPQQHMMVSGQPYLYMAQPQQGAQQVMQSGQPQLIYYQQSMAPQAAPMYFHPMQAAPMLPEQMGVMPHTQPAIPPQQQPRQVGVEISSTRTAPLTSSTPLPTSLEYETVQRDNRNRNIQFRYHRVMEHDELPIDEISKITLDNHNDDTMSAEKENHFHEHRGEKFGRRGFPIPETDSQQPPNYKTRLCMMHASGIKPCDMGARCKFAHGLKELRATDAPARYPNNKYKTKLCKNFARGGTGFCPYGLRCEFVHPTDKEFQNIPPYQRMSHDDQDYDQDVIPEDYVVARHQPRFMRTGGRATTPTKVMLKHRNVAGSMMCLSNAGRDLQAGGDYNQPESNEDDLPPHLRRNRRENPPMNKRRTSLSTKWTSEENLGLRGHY
# [32] = biological target: T5, RNA-binding protein pos-1 (Caenorhabditis elegans, UniProt G5EF15); experiment: inhibitors of POS-1/mex-3 RNA binding, dose response, biochemical, fluorescence polarization (AID 1964);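 also: purified POS-1 fused to maltose binding protein made in E. coli; potency of compounds blocking POS-1 binding to fluorescent RNA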
# T5 sequence (G5EF15 whole entry): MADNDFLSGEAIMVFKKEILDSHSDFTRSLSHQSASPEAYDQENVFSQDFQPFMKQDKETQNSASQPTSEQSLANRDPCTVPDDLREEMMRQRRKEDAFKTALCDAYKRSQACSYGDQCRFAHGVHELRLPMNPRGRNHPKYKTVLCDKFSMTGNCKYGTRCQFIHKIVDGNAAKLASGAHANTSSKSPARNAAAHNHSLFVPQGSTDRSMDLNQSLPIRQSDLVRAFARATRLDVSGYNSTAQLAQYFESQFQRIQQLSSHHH
# [33] = biological target: Nuclear receptor subfamily 5 group A member 2 (Homo sapiens, UniProt O00482); format: functional, cell-based;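 also: HEK293T cells transfected with LRH-1 and a StAR promoter luciferase reporter; potency for inhibitors that lower LRH-1 driven reporter light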
# Sequence of Nuclear receptor subfamily 5 group A member 2 (O00482 whole entry): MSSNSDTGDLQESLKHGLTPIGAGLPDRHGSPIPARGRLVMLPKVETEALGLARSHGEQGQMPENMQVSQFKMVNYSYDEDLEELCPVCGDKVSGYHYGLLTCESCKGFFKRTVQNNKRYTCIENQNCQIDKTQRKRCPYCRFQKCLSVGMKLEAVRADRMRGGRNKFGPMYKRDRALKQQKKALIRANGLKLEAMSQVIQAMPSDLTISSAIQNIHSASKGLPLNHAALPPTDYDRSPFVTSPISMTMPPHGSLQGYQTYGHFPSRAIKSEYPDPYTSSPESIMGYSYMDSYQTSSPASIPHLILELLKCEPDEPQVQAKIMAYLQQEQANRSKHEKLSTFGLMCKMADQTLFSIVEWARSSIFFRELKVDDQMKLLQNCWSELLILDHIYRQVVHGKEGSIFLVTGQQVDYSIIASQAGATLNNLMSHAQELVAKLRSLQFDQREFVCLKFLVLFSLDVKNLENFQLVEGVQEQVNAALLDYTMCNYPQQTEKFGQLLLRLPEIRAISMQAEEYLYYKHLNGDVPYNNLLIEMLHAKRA
# [34] = biological target: DNA repair protein RAD52 homolog (Homo sapiens, UniProt P43351); format: functional, biochemical
# [35] = StAR promoter reporter inhibition counter-screen, dose response, counter-screen for LRH-1 inverse agonist project, cell-based, luminescence, luciferase reporter (AID 651969); format: functional
# [36] = biological target: 26S proteasome non-ATPase regulatory subunit 14 (Homo sapiens, UniProt O00487); experiment: inhibition of proteasome subunit RPN11 – biochemical, fluorescence polarization, uHTS hits, confirmation (AID 602368); format: functional
# Sequence of CAAX prenyl protease 2 (Q9Y256 whole entry): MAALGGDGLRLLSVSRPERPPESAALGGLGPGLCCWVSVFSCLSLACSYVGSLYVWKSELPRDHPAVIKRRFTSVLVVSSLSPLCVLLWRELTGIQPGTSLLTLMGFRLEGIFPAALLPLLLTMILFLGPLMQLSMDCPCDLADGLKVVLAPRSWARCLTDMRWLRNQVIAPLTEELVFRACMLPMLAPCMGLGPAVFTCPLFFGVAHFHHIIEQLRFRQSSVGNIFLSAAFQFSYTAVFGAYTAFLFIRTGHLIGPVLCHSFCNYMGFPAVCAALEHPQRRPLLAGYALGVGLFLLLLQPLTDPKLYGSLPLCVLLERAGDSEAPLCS
structure (smiles),measurement,setting,value
CCOC(=O)c1sc2nc(C3CC3)cc(-c3ccc(OC)cc3)c2c1N,AC50,[1],14.8 µM (active)
same,AC50,[2],0.642 µM (active)
Cc1nc(N2CCCCC2C)c2c(C)c(C(=O)Nc3ccccc3C(F)(F)F)sc2n1 (configuration not stated),AC50,[1],6.65 µM (active)
CC(C)N1CC=C2C(C#N)=C(N)C(C#N)(C#N)C(c3ccccc3)C2C1 (configuration not stated),AC50,[3],> 52 µM (inactive)
COc1ccc(C(NC(=O)Cc2ccccc2)c2ccc3cccnc3c2O)cc1OC (configuration not stated),IC50,[4],2.61 µM (active)
same,IC50,[5],2.24 µM (active)
same,IC50,[6],11.2 µM (active)
CCOC(=O)c1ccc(NC(=O)c2nc(S(=O)(=O)Cc3ccccc3)ncc2Cl)cc1,AC50,[7],9.92 µM (active)
same,EC50,[8],2.11 µM (active)
same,EC50,[9],6.81 µM (active)
same,AC50,[10],28.9 µM (active)
same,IC50,[11],1.95 µM (active)
same,EC50,[12],> 120 µM (not active)
same,EC50,[13],10 µM (active)
same,EC50,[14],10.3 µM (active)
same,AC50,[15],36.6 µM (active)
same,EC50,[16],10.8 µM (active)
same,AC50,[17],6.7 µM (active)
same,IC50,[18],8.4 µM (active)
same,AC50,[19],0.572 µM (active)
same,AC50,[20],7.7 µM (active)
O=C1C=CC(=O)N1CCCCCCCCCCN1C(=O)C=CC1=O,IC50,[21],> 80 µM (inactive)
same,AC50,[22],1.49 µM (active)
same,IC50,[11],1.82 µM (active)
same,IC50,[18],16.3 µM (inactive)
N#Cc1ccc(CN2CCCC3(CCN(C(=O)c4ccncc4)CC3)C2)cc1,AC50,[23],1.58 µM (inconclusive)
same,AC50,[24],inconclusive
same,AC50,[25],inconclusive
same,AC50,[26],inconclusive
O=C(O)c1cc(O)c2ccc(Cl)cc2n1 [7-CHLOROKYNURENIC ACID],AC50,[24],inconclusive
same,AC50,[25],inconclusive
same,AC50,[27],6.31 µM (inconclusive)
O=C(CCl)NCCN1C(=O)S/C(=C\c2cccnc2)C1=O,IC50,[21],> 80 µM (inactive)
same,IC50,[28],21.2 µM (active)
same,IC50,[29],> 100 µM (inactive)
same,IC50,[30],3.69 µM (active)
same,EC50,[31],> 300 µM (not active)
same,EC50,[32],> 300 µM (not active)
same,IC50,[33],8.94 µM (active)
same,AC50,[34],2.24 µM (active)
same,IC50,[35],26.4 µM (inactive)
same,IC50,[36],7.21 µM (active)
